Measurements as given in patent publication US6673749B1, “Use of phyllocladane diterpenoids for plant growth promotion and alleviation of growth retardant allelochemicals, and method therefor” (Council of Scientific and Industrial Research, priority 2002, dated 2004).

Experiments:
Assay type in all cases: in vivo
Hordeum vulgare = test: Seed germination and seedling shoot/root growth test in petridishes; settings: control = 100%
Procedure, shortened: (§1)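 Ten seeds per 9.0 cm dish on filter paper wetted with 0.1, 0.01 or 0.001 μM compound solution (ethanol or acetone cosolvent, matched in controls), in triplicate. Incubated 9 days at 25.0±1.0 °C, 90% humidity, 4 hr light/day. Germination and shoot and root length expressed relative to control taken as 100%.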

[1] = system: Trigonella foenum-graecum; test: as above; settings: for Percent (%) germination of seeds in relation to control on 9th day after sowing / Percent (%) root growth of seedlings in relation to control on 9th day after sowing / Percent (%) shoot growth of seedlings in relation to control on 9th day after sowing: Trigonella foenum graecum, control = 100%
Procedure, shortened: as §1

Triticum aestivum = test: as above; settings: control = 100%
Procedure, shortened: as §1

Vigna radiata = test: as above; settings: Vigna radiata, control = 100%
Procedure, shortened: as §1

Hibiscus sabdariffa [2] = test: Seed germination and seedling growth, comparison with GA3 (Example 4)
Method: (§2) 100 ml stalk solutions of 0.1 μM concentration were prepared by dissolving required amounts of various test compounds (depending upon their molecular weights) in minimum amount of ethanol or acetone and adding distilled water. From this stalk solution, 0.01 μM and 0.001 μM concentrations were prepared. Calliterpenone and calliterpenone di acetate was dissolved in 2.0 ml absolute ethanol (Merc), while; calliterpenone monoacetate, isopropylideno calliterpenone and trihydroxy calliterpenone were dissolved in 2.0 ml spectral grade acetone (Ranbaxy). The respective control test solutions of distilled water of each concentration also contained equal amount of absolute ethanol or acetone. For an assay, 10 seeds were placed on Whatman filter paper (moistened with 5.0 ml of test solution in a 9.0 cm diameter petridish (in triplicate). The pteridishes were incubated for 9 days in a germinator, maintained at 25.0±1.0° C. with 90% humidity and 4 hr light/day. At the end of incubation, observations were recorded on the seedlings in terms of germination, shoot and root growth. The data on the length of shoot and root of seedlings and number of seeds germinated in different concentrations of compounds were compared with the control, which was taken as 100%. The data thus obtained were presented in Table-1.
(§3) Effect of calliterpenone and its derivatives on seed germination and seedling growth in Hibiscus sabdariffa and Sesbania cannabina were measured in the similar way as these were measured in Example-1.

Sesbania cannabina [3] = test: as above
Method: as §2, §3

Hibiscus sabdariffa [4] = test: Antagonistic effect with Artemisia annua seed extract on germination and seedling growth; settings: A. annua seed extract (1.3 g seeds/100 ml) alone or mixed 1:1 with 0.01 μm compound, control = 100%
Method: (§4) On the other hand, it is evident from Exp. 1-4 that phyllocladane diterpenenoids have produced germination and growth promoting activities on various plant species. To find out the combined effect of A. annua extract and phyllocladane diterpenoides on the germination and seedling growth of different plant species, 1:1 ratio of these compounds and A.annua extract were tested in the present experiment. For this, Hibiscus sabdariffa and Sesbania cannabina seeds were germinated in A.annua seed extract and solutions prepared by mixing this extract with 0.01 μm calliterpenone and calliterpenone mono-acetate respectively (Table 7). For the preparation of A.annua extract, 1.3 g seeds were soaked in 100 ml of distilled water for 24 hrs for testing on H. sabdariffa. Since, at this concentration, seeds of this species have shown 69% mortality which may be taken as good indicator. This effect was also recorded in S.cannabina. Since, in this case, seeds were almost half in weight as compared to the seeds of H. sabdariffa, accordingly, 0.65 g A. annua seeds were soaked in 100 ml of distilled water for 24 hrs to produce identical constraints in S. cannabina. For control, seeds were germinated in distilled water and all the observations were compared with it. […] Therefore, calliterpenone and its derivatives can be used to nullify the effects of other growth retardants/allelochemicals in the fields for their reclamation.

Sesbania cannabina [5] = test: as above; settings: A. annua seed extract (0.65 g seeds/100 ml) alone or mixed 1:1 with 0.01 μm compound, control = 100%
Method: as §4

In the case of CC(=O)OCC1(O)CC23CCC4C(C)(C)C(=O)CCC4(C)C2CCC1C3 (stereo not shown) [Calliterpenone Monoacetate, calliterpenone monoacetate], the “Percent (%) germination of seeds in relation to control on 9th day after sowing” value (“Percent (%) germination of seeds” for short) (Hordeum vulgare; 0.001 μM) is reported as 100%, the “Percent (%) root growth of seedlings in relation to control on 9th day after sowing” value (shortened to “Percent (%) root growth of seedlings”) (Hordeum vulgare; 0.001 μM) is reported as 146% and the “Percent (%) shoot growth of seedlings in relation to control on 9th day after sowing” value (“Percent (%) shoot growth of seedlings” below) (Hordeum vulgare; 0.001 μM) is reported as 113%. The “Percent (%) germination of seeds” value (Hordeum vulgare; 0.01 μM) was 100%, the “Percent (%) root growth of seedlings” value (Hordeum vulgare; 0.01 μM) was 114% and the “Percent (%) shoot growth of seedlings” value (Hordeum vulgare; 0.01 μM) was 117%. The “Percent (%) germination of seeds” value (Hordeum vulgare; 0.1 μM) was 100%, the “Percent (%) root growth of seedlings” value (Hordeum vulgare; 0.1 μM) was 124% and the “Percent (%) shoot growth of seedlings” value (Hordeum vulgare; 0.1 μM) was 118%. For the same molecule, the “Percent (%) germination of seeds” value ([1]; 0.001 μM) was 113%, the “Percent (%) root growth of seedlings” value ([1]; 0.001 μM) was 131% and the “Percent (%) shoot growth of seedlings” value ([1]; 0.001 μM) was 135%. The “Percent (%) germination of seeds” value ([1]; 0.01 μM) was 113%, the “Percent (%) root growth of seedlings” value ([1]; 0.01 μM) was 95% and the “Percent (%) shoot growth of seedlings” value ([1]; 0.01 μM) was 134%. The “Percent (%) germination of seeds” value ([1]; 0.1 μM) was 113%, the “Percent (%) root growth of seedlings” value ([1]; 0.1 μM) was 81% and the “Percent (%) shoot growth of seedlings” value ([1]; 0.1 μM) was 133%. The “Seed germination as compared to 100% in control” value ([1]; Trigonella foenum-graceum, concentration not specified) was 113%, the “Percent (%) germination of seeds” value (Triticum aestivum; 0.001 μM) was 100% and the “Percent (%) root growth of seedlings” value (Triticum aestivum; 0.001 μM) was 145%. For the same molecule, the “Percent (%) shoot growth of seedlings” value (Triticum aestivum; 0.001 μM) was 106%, the “Percent (%) germination of seeds” value (Triticum aestivum; 0.01 μM) was 100% and the “Percent (%) root growth of seedlings” value (Triticum aestivum; 0.01 μM) was 102%. The “Percent (%) shoot growth of seedlings” value (Triticum aestivum; 0.01 μM) was 107%, the “Percent (%) germination of seeds” value (Triticum aestivum; 0.1 μM) was 100% and the “Percent (%) root growth of seedlings” value (Triticum aestivum; 0.1 μM) was 88%. The “Percent (%) shoot growth of seedlings” value (Triticum aestivum; 0.1 μM) was 109%, the “Percent (%) germination of seeds” value (Vigna radiata; 0.001 μM) was 100% and the “Percent (%) root growth of seedlings” value (Vigna radiata; 0.001 μM) was 104%. The “Percent (%) shoot growth of seedlings” value (Vigna radiata; 0.001 μM) was 138%, the “Percent (%) germination of seeds” value (Vigna radiata; 0.01 μM) was 150% and the “Percent (%) root growth of seedlings” value (Vigna radiata; 0.01 μM) was 85%. For the same molecule, the “Percent (%) shoot growth of seedlings” value (Vigna radiata; 0.01 μM) was 130%, the “Percent (%) germination of seeds” value (Vigna radiata; 0.1 μM) was 200% and the “Percent (%) root growth of seedlings” value (Vigna radiata; 0.1 μM) was 67%. For the same molecule, the “Percent (%) shoot growth of seedlings” value (Vigna radiata; 0.1 μM) was 123%, the “Enhancement in germination (in words)” value (Hibiscus sabdariffa [2]) was “did not produce any enhancement in germination” and the “Seed Ger.” value (Hibiscus sabdariffa [2]; 0.001 μM) was 3. The “Root Growth (mm) 3rd Day” value (Hibiscus sabdariffa [2]; 0.001 μM) was 16.3 mm, the “Shoot growth 3rd Day” value (Hibiscus sabdariffa [2]; 0.001 μM) was 28.8 and the “Root Growth (mm) 6th Day” value (Hibiscus sabdariffa [2]; 0.001 μM) was 19.3 mm. For the same molecule, the “Shoot growth 6th Day” value (Hibiscus sabdariffa [2]; 0.001 μM) was 85.8, the “Root Growth (mm) 9th Day” value (Hibiscus sabdariffa [2]; 0.001 μM) was 24.8 mm and the “Shoot growth 9th Day” value (Hibiscus sabdariffa [2]; 0.001 μM) was 91.6. The “Seed Ger.” value (Hibiscus sabdariffa [2]; 0.01 μM) was 2, the “Root Growth (mm) 3rd Day” value (Hibiscus sabdariffa [2]; 0.01 μM) was 17.5 mm and the “Shoot growth 3rd Day” value (Hibiscus sabdariffa [2]; 0.01 μM) was 33.5. The “Root Growth (mm) 6th Day” value (Hibiscus sabdariffa [2]; 0.01 μM) was 18.3 mm, the “Shoot growth 6th Day” value (Hibiscus sabdariffa [2]; 0.01 μM) was 67.5 and the “Root Growth (mm) 9th Day” value (Hibiscus sabdariffa [2]; 0.01 μM) was 21.3 mm. For the same molecule, the “Shoot growth 9th Day” value (Hibiscus sabdariffa [2]; 0.01 μM) was 75.2, the “Seed Ger.” value (Hibiscus sabdariffa [2]; 0.1 μM) was 0 and the “Root growth as compared to respective control” value (Sesbania cannabina [3]; 0.001 μM) was 114%. The “Seed Ger.” value (Sesbania cannabina [3]; 0.001 μM) was 3, the “Shoot growth as compared to respective control” value (Sesbania cannabina [3]; 0.001 μM) was 109% and the “Root Growth (mm) 3rd Day” value (Sesbania cannabina [3]; 0.001 μM) was 40.0 mm. The “Shoot growth 3rd Day” value (Sesbania cannabina [3]; 0.001 μM) was 44.0, the “Root Growth (mm) 6th Day” value (Sesbania cannabina [3]; 0.001 μM) was 40.0 mm and the “Shoot growth 6th Day” value (Sesbania cannabina [3]; 0.001 μM) was 110.0. The “Root Growth (mm) 9th Day” value (Sesbania cannabina [3]; 0.001 μM, 9th day) was 57.0 mm, the “Root growth as compared to GA3 taken as 100%” value (Sesbania cannabina [3]; 0.001 μM, 9th day) was 143% and the “Shoot growth 9th Day” value (Sesbania cannabina [3]; 0.001 μM, 9th day) was 120. The “Seed Ger.” value (Sesbania cannabina [3]; 0.01 μM) was 3, the “Root Growth (mm) 3rd Day” value (Sesbania cannabina [3]; 0.01 μM) was 28.3 mm and the “Shoot growth 3rd Day” value (Sesbania cannabina [3]; 0.01 μM) was 20.0. For the same molecule, the “Root Growth (mm) 6th Day” value (Sesbania cannabina [3]; 0.01 μM) was 28.4 mm, the “Shoot growth 6th Day” value (Sesbania cannabina [3]; 0.01 μM) was 57.8 and the “Root Growth (mm) 9th Day” value (Sesbania cannabina [3]; 0.01 μM, 9th day) was 45.1 mm. For the same molecule, the “Shoot growth 9th Day” value (Sesbania cannabina [3]; 0.01 μM, 9th day) was 78.2, the “Seed Ger.” value (Sesbania cannabina [3]; 0.1 μM) was 2 and the “Root Growth (mm) 3rd Day” value (Sesbania cannabina [3]; 0.1 μM) was 5.5 mm. The “Shoot growth 3rd Day” value (Sesbania cannabina [3]; 0.1 μM) was 11.0, the “Root Growth (mm) 6th Day” value (Sesbania cannabina [3]; 0.1 μM) was 7.5 mm and the “Shoot growth 6th Day” value (Sesbania cannabina [3]; 0.1 μM) was 50.0. The “Root Growth (mm) 9th Day” value (Sesbania cannabina [3]; 0.1 μM, 9th day) was 23.0 mm, the “Shoot growth 9th Day” value (Sesbania cannabina [3]; 0.1 μM, 9th day) was 66.0 and the “Germination as compared to GA3 treatments” value (Sesbania cannabina [3]; concentration not given) was 150%. The “Germination as compared to its control” value (Sesbania cannabina [3]; concentration not given) was 150%, the “Percent (%) germination in relation to control on the 9th day after sowing” value (Hibiscus sabdariffa [4]) was “completely checked the inhibitory effect” and the “Percent (%) seedling growth, Root, in relation to control on the 9th day after sowing” value (Hibiscus sabdariffa [4]) was 172%. The “Percent (%) seedling growth, Stem, in relation to control on the 9th day after sowing” value (Hibiscus sabdariffa [4]) was 169%, the “Percent (%) germination in relation to control on the 9th day after sowing” value (Sesbania cannabina [5]) was “completely checked the inhibitory effect” and the “Percent (%) seedling growth, Root, in relation to control on the 9th day after sowing” value (Sesbania cannabina [5]) was 175%. The “Percent (%) seedling growth, Stem, in relation to control on the 9th day after sowing” value (Sesbania cannabina [5]) was 175%.
